Measured values published in patent US7138486B2, “Insulinotropic hormone derivatives and uses thereof” (The General Hospital Corporation, priority 1986, dated 2006).
Blank lines part the entries; values can stand above or below the molecule they belong to. Where no end group is shown, it is not given here.

Columns and labels:
[1] = system: rat insulin I gene promoter in βTC-1 cells; test: CAT activity in cells transiently transfected with −410 Ins-CAT plasmid; format: cell-based, mouse; conditions: 24 hours
Protocol: Cells of two 80–90% confluent 150 mm culture plates were trypsinized and transfected in solution in one tube with 15 μg of indicator plasmid using the DEAE-dextran method. The plasmid contained 410 bp of the rat insulin I gene promoter fused to the transcriptional reporter gene encoding the bacterial enzyme chloramphenicol-acetyltransferase (CAT). […] Subsequently cells were plated into 18 wells of six well plates. […] Thereby, differences in transfection deficiencies reflected in CAT activities were normalized against protein concentrations as well as the respective control experiments. After transfection cells were incubated in RPMI 1640 supplemented with 0.1% human serum albumin and 0.1% bacitracin. […] After extraction with ethylacetate (1 ml) acetylated and non-acetylated ^14C-chloramphenicol were separated by thin-layer chromatography (chloroform:methanol 9:1), identified by autoradiography and the respective spots were scraped from the plates and radioactivity was counted in a scintillation counter.

βTC-1 cells [2] = test: Proinsulin biosynthesis ([3H]leucine labelling); format: cell-based, mouse; conditions: 6 hours labeling
Protocol: βTC-1 cells (Efrat et al., Proc. Natl. Acad. Sci. (USA) 85:9037–9041 (1988)) were grown in a humidified atmosphere at 37° C. in RPMI 1640 medium supplemented with 10% (vol/vol) fetal bovine serum, 5% (vol/vol) horse serum, 100 U/ml penicillin and 100 μg/ml streptomycin. Media were changed after three days and cells were split 1:3 after six days.
βTC-1 cells were plated into 35 mm plates and grown for two days to reach 80–90% confluency. During a 6 hour labeling period cells were incubated in 1 ml RPMI 1640 supplemented with 0.1% human serum albumin, 0.1% bacitracin and 50 μCi[^3H]leucine. Forskolin, IBMX, 8-Bromo-cAMP and GLP-1(7-37) were added from stock solutions as described (see “cell transfection”). Cells were harvested in PBS and lysed by three freeze-thaw cycles. Immunoreactive proinsulin was precipitated with an antiserum raised in rabbits against pork insulin that was coupled to a 10% suspension of bacterial lysates (Saureus) containing protein A. Radioactivity contained in the resulting pellets was counted using a lliquid scintillation counter. Incorporation of [^3H]leucine into total protein was measured in trichloroacetic acid precipitates of the cells. None of the agents tested had any effects on [^3H]leucine incorporation into TCA precipitable proteins. Data are expressed as fold-induction of proinsulin biosynthesis above those in the control experiments (no treatment).

βTC-1 cells [3] = test: Cellular insulin content by radioimmunoassay; format: cell-based, mouse; conditions: 24 hours
Protocol: Two days before the experiment commenced, cells were plated into 35 mm plates. Media were changed to RPMI 1640 supplemented with 0.1% human serum albumin and 0.1% bacitracin. […] After incubation for 24 hours under these conditions, cells were washed three times with PBS and harvested in 1.5 ml buffer containing 150 mM NaCl, 1 mM EDTA and 40 mM Tris/Cl pH 7.4 and resuspended in 200 μl PBS. Fifty μl of this cell suspension were resuspended in 1 ml 1 M acetic acid and extracted for 16 hours at 4° C. Aliquots (2 and 20 μl) were lyophilized and reconstituted in insulin-RIA buffer. The cell number of each plate was controlled by determination of total protein in the initial cell lysate. […] Insulin was measured with a radioimmunoassay system using an antiserum raised in rabbits against pork insulin and pork insulin as the standard. […] Data are presented as fold-increase of insulin content per well above the control experiments (no treatment).

rat pancreas = test: Pancreatic perfusion assay of insulinotropic activity (effluent insulin); format: in vivo; conditions: for Insulinotropic activity: 10^−11 M, five minute perfusions, FIG. 4; for Insulinotropic activity (perfusate insulin): Table 6; for Mean perfusate insulin concentration: 10^−9 M for 5 minutes
Protocol: The in situ isolated perfused rat pancreas preparation was a modification of the method of Penhos, J. C., el al. (Diabetes 18:733–738 (1969)). In accordance with such a method, fasted rats (preferably male Charles River strain albino rats), weighing 350–600 g, are anesthetized with an intraperitoneal injection of Amytal Sodium (Eli Lilly and Co., 160 ng/kg). Renal, adrenal, gastric, and lower colonic blood vessels are ligated. The entire intestine is resected except for about four cm of duodenum and the descending colon and rectum. […] The perfusate is preferably a modified Krebs-Ringer bicarbonate buffer with 4% dextran T70 and 0.2% bovine serum albumin (fraction V), and is preferably bubbled with 95% O2 and 5% CO2. A nonpulsatile flow, four-channel roller-bearing pump (Buchler polystatic, Buchler Instruments Division, Nuclear-Chicago Corp.) is preferably used, and a switch from one perfusate source to another is preferably accomplished by switching a three-way stopcock.
Isolated rat pancreas was prepared according to the method of Weir, G. C., et al., (J. Clin. Invest. 54:1403–1412 (1974)), and Penkos, J. C., et al. (Diabetes 18:733–738 (1969)). The perfusate contained bicarbonate buffer (pH 7.4) and 120 mg/dl glucose, 4% dextran T-70, and 0.2% bovine serum albumin, and was equilibrated with 95% oxygen and 5% carbon dioxide. The first 20 minutes of each perfusion was an equilibrium period. After this initial period, aliquots of perfusate were removed every 2–4 min for additional 20 min, thus allowing the system to equilibrate for a total of 40 min. The perfusion, including any added insulinotropic peptide, was for 6 min and samples were collected at 1-min intervals. When more than one perfusion was to be performed, the peptide perfusions were followed by equilibration periods of 20 min, during which four samples 5 min apart were collected. […] Again, samples 1 min apart were collected. The entire perfusion time was between 70 and 85 min.
In each aliquot of perfusate obtained, insulin was determined by radioimmunoassay. […] At one minute intervals, pancreas effluent insulin levels in picograms/ml were determined by radioimmunoassay (as described above).

RIN 1046-38 cells [4] = test: cAMP formation in insulinoma cell line; format: cell-based, rat; conditions: for Effect on cAMP levels: 0.5 μM; for Effects on the formation of cAMP: at 5 nM and 50 pM
Protocol: Cells were grown as described in Example 1, in […] culture dishes. Varying amounts of glucagon-like peptides were added to culture wells in triplicate. […] Twenty microliters from each culture well was assayed.
Insulinotropic activity was monitored as described by Mojsov, S., et al., (J. Clin. Invest. 79:616–619 (1987)) and Drucker, D. J., et al., (Proc. Natl Acad. Sci. 84:3434–3438 (1987)), both of which references are incorporated by reference herein. […]

RIN 1046-38 cells [5] = test: Levels of insulin, actin and angiotensinogen mRNAs by Northern blot densitometry; format: cell-based, rat
Protocol: Rat insulinoma cells of cell line RIN-38 were derived from a continuous islet cell line, RIN-r, which was established from a transplantable rat islet cell tumor (Gazdar, A. F., et al., Proc. Natl. Acad. Sci., USA 77:3519–3523 (1980)). The cells were maintained in DMEM (Gibco) at a glucose concentration of 4,500 mg/L and supplemented with 10% heat-inactivated fetal bovine serum (Gibco), 100 U/ml of penicillin and 100 μg/ml of streptomycin. Incubations were carried out at 37° C. in 95% air:5% CO2. Cells grown in the above manner were washed and resuspended in DMEM (Gibco) containing 0.1% bovine serum albumin and 25 mM glucose. […] Incubations were for six hours.
Messenger RNAs specific for insulin, actin, or angiotensinogen were identified by Northern hybridization as follows: cellular RNA was extracted from solid tumors and cells by homogenization in guanidine thiocyanate and sedimentation through a cesium chloride cushion. Poly A^+ RNA was isolated by oligo dT cellulose chromatography (Aviv, H., et al., Proc. Natl. Acad. Sci., USA 69:1408–1412 (1972)). Twenty micrograms of total RNA from each sample were fractionated by size on a 1.4% agarose gel after denaturation in glyoxal, followed by electrotransfer to a nylon membrane (Nytran; Schleicher and Schuell). Blotted membranes were baked for two hours at 80° C. under vacuum, prehybridized in 1M NaCl/1% SDS/10% Dextran sulfate at 50° C. overnight and hybridized at the same temperature for 24 h after addition of the labeled probes (3–5×10^5 cpm/ml); they were then washed at 55° C. twice in 1×SCC (0.15M NaCl/0.015 M Na citrate)/1% SDS), and exposed to X-ray film for varying times at −70° C. with an intensifying screen. The relative amounts of the specific mRNA were determined by microdensitometry.

[6] = target: receptor involved in the recognition of glucagon; test: cell-based or functional assay
cellular receptors = test: cell-based or functional assay

Molecule: C=C[C@@]1(C)CC(=O)[C@]2(O)[C@@]3(C)[C@@H](O)CCC(C)(C)[C@@H]3[C@H](O)[C@H](OC(C)=O)[C@@]2(C)O1 [Forskolin, forskolin]
Increase of CAT activity ([1]; 10 μM): 3.3±0.57 fold | Increase of proinsulin biosynthesis (βTC-1 cells [2]; 10 μM): 1.53±0.06 fold | Increase of total cellular insulin content (βTC-1 cells [3]; 10 μM): 1.49±0.18 fold

Molecule: CC(C)Cn1c(=O)n(C)c(=O)c2[nH]cnc21 [IBMX]
Increase of CAT activity ([1]; 0.5 mM): 2.6±0.16 fold | Increase of proinsulin biosynthesis (βTC-1 cells [2]; 0.5 mM): 1.53±0.06 fold | Increase of total cellular insulin content (βTC-1 cells [3]; 0.5 mM): 1.30±0.12 fold

Molecule: GLP-1(7-34): derivative of GLP-1(1-37), amino acids 7-34 (HAEGTFTSDVSSYLEGQAAKEFIAWLVK; Glucagon-like peptide 1; UniProt P01275 98-125, looked up, fragment)
Insulinotropic activity (rat pancreas): detectable insulinotropic activity

Molecule: GLP-1(7-35): derivative of GLP-1(1-37), amino acids 7-35 (HAEGTFTSDVSSYLEGQAAKEFIAWLVKG; Glucagon-like peptide 1; UniProt P01275 98-126, looked up, fragment)
Insulinotropic activity (rat pancreas): detectable insulinotropic activity

Molecule: GLP-1(7-36)-NH2: GLP-1(7-36) with the C-terminal residue, arginine, in amidated form as arginineamide
cAMP formation (RIN 1046-38 cells [4]; IBMX 100 uM, peptide 10^−7 M): 358 ± 32 fmoles/10 ul of cell extract | cAMP formation (RIN 1046-38 cells [4]; IBMX 100 uM, peptide 10^−9 M): 225 ± 16 fmoles/10 ul of cell extract | cAMP formation (RIN 1046-38 cells [4]; IBMX 100 uM, peptide 10^−11 M, 10 minutes, control 161 ± 10): 141 ± 5 fmoles/10 ul of cell extract | cAMP formation (RIN 1046-38 cells [4]; IBMX 500 uM, peptide 10^−7 M): 1676 ± 113 fmoles/10 ul of cell extract | cAMP formation (RIN 1046-38 cells [4]; IBMX 500 uM, peptide 10^−9 M): 1199 ± 41 fmoles/10 ul of cell extract | cAMP formation (RIN 1046-38 cells [4]; IBMX 500 uM, peptide 10^−11 M, control 540 ± 22): 446 ± 38 fmoles/10 ul of cell extract | Insulinotropic activity (perfusate insulin) (rat pancreas; time +1 minute): 4550 ± 703 | Insulinotropic activity (perfusate insulin) (rat pancreas; time +2 minutes): 3330 ± 637 | Insulinotropic activity (perfusate insulin) (rat pancreas; time +3 minutes): 2500 ± 564 | Insulinotropic activity (perfusate insulin) (rat pancreas; time −1 minute (before peptide), 5 minute perfusion): 985 ± 275 | Potency as secretagogue, 7-37 form versus 7-36-amide (rat pancreas; perfused rat pancreas): equally potent secretagogues

Molecule: GLP-1-(1-36)-NH2: GLP-1(1-36 des-gly-arg amide); Peninsula Laboratories (HDEFERHAEGTFTSDVSSYLEGQAAKEFIAWLVKGR-NH2; UniProt P01275 92-127, looked up, fragment)
Actin mRNA level (RIN 1046-38 cells [5]; Experiment 1, peptide 5 × 10^−7 M, control 0.68 ± 0.03): 0.87 ± 0.19 Arbitrary densitometric units | Insulin mRNA level (RIN 1046-38 cells [5]; Experiment 1, peptide 5 × 10^−7 M, control 1.28 ± 0.18, mean ± SEM): 2.78 ± 0.51^4 Arbitrary densitometric units | Angiotensinogen mRNA level (RIN 1046-38 cells [5]; Experiment 1, peptide 5 × 10^−7 M, control 2.67 ± 0.31): 2.56 ± 0.22 Arbitrary densitometric units | Effect on cAMP levels (RIN 1046-38 cells [4]): increased cAMP levels | cAMP (RIN 1046-38 cells [4]; Exp. 4, 5 × 10^−7 M, control 41.3 ± 7.1): 70.2 ± 2.8 (b) fmol | Effects on the formation of cAMP (RIN 1046-38 cells [4]): negligible

Molecule: GLP-2: glucagon-like peptide 2, 34 amino acid residues long
Effects on insulin mRNA levels (RIN 1046-38 cells [5]): no effects | Stimulation of cAMP levels (RIN 1046-38 cells [4]; even at 10^−11 M): neither GLP-1(1-37) nor GLP-2 (GLP-2) exhibited such activity

Molecule: His-Ala-Glu-Gly-Thr-Phe-Thr-Ser-Asp-Val-Ser-Ser-Tyr-Leu-Glu-Gly-Gln-Ala-Ala-Lys-Glu-Phe-Ile-Ala-Trp-Leu-Val-Lys-Gly-Arg (HAEGTFTSDVSSYLEGQAAKEFIAWLVKGR; printed: His-Ala-Glu-Gly-Thr-Phe-Thr-Ser-Asp-Val-Ser-Ser-Tyr-Leu-Glu-Gly-Gln-Ala-Ala-Lys-Glu-Phe-Ile-Ala-Trp-Leu-Val-Lys-Gly-Arg) [GLP-1(7-36), GLP-1 polypeptide having all amino acids from number 7 through number 36]
Insulinotropic activity compared with GLP-1(7-37) (rat pancreas; 10^−11M): equiavlent to GLP-1(7-37)

Molecule: des-7 histidine GLP-1(7-37) (AEGTFTSDVSSYLEGQAAKEFIAWLVKGRG) [GLP-1 (8-37)]
cAMP formation (RIN 1046-38 cells [4]; Table 8, 10^−5 M): 77 ± 11 f-mole/5 ul of cell extract/15 min exposure to peptide | cAMP formation (RIN 1046-38 cells [4]; Table 8, 10^−6 M): 31 ± 3 f-mole/5 ul of cell extract/15 min exposure to peptide | cAMP formation (RIN 1046-38 cells [4]; Table 8, 10^−7 M): 24 ± 2 f-mole/5 ul of cell extract/15 min exposure to peptide | cAMP formation (RIN 1046-38 cells [4]; Table 8, 10^−8 M, no peptide 27 ± 2, mean ± S.E.M.): 28 ± 0.8 f-mole/5 ul of cell extract/15 min exposure to peptide | Insulinotropic activity compared with glucagon (RIN 1046-38 cells [4]; cAMP formation): comparable to that of glucagon | Effect on insulin secretion (rat pancreas; perfusate glucose 6.6 mM, 10^−7 M): weak insulinotropic activity | Effect on insulin secretion (rat pancreas; perfusate glucose 6.6 mM, 10^−11, 10^−9, or 10^−8 M): no detectable effect | Effect on insulin secretion (rat pancreas; perfusate glucose 16.7 mM, 10^−9 M): no effect

Molecule: glucagon
Effects on insulin mRNA levels (RIN 1046-38 cells [5]): no effects | Effect on cAMP levels (RIN 1046-38 cells [4]): increased cAMP levels | cAMP (RIN 1046-38 cells [4]; Exp. 1, 5 × 10^−9 M): 20.1 ± 2.5 (a) fmol | cAMP (RIN 1046-38 cells [4]; Exp. 1, 5 × 10^−10 M): 16.5 ± 2.0 (NS) fmol | cAMP (RIN 1046-38 cells [4]; Exp. 1, 5 × 10^−11 M): 13.2 ± 1.0 (NS) fmol | cAMP (RIN 1046-38 cells [4]; Exp. 1, 5 × 10^−12 M, per 1/50th of cell extract per plate, control 15.4 ± 0.7, mean ± SEM): 18.7 ± 2.2 (NS) fmol | cAMP (RIN 1046-38 cells [4]; Exp. 2, 5 × 10^−7 M): 93.1 ± 2.9 (c) fmol | cAMP (RIN 1046-38 cells [4]; Exp. 2, 5 × 10^−8 M, control 43.6 ± 4.1): 44.8 ± 1.6 (NS) fmol | cAMP formation (RIN 1046-38 cells [4]; Table 8, 10^−6 M): 92 ± 9 f-mole/5 ul of cell extract/15 min exposure to peptide | Effects on the formation of cAMP (RIN 1046-38 cells [4]): negligible | Mean perfusate insulin concentration (rat pancreas; glucose 6.6 mM, absence of GLP-1 (8-37)): 4.98 ± 0.96 ng/mL | Mean perfusate insulin concentration (rat pancreas; glucose 6.6 mM, presence of 10^−8 M GLP-1 (8-37), N=4): 5.26 ± 0.89 ng/mL | Peak insulin release (rat pancreas; 10^−9 M, glucose 6.6 mM): 4.5 ± 0.5 ng/mL | Insulin release (rat pancreas; 10^−11M): no release | Concentration at which an insulinotropic effect is still mediated (as low as) (rat pancreas; pancreatic B cell secretagogue): 10^−9 M

mean perfusate insulin concentration, perfused rat pancreas, glucagon alone at 10^-9 M [6]: 4.98 ng/mL
Molecule: glucagon (from UniProt P01275 53-81) (peptide)

cAMP level in RIN-38 cells, 10 min, peptide at 10^-6 M (no peptide: 91) (cellular receptors): 170 | cAMP level in RIN-38 cells, 10 min, peptide at 10^-7 M (no peptide: 91) (cellular receptors): 120 | cAMP level in RIN-38 cells, 10 min, peptide at 10^-8 M (no peptide: 91) (cellular receptors): 160 | cAMP level in RIN-38 cells, 10 min, peptide at 10^-9 M (no peptide: 91) (cellular receptors): 100 | cAMP level in RIN-38 cells, 10 min, peptide at 10^-10 M (no peptide: 91) (cellular receptors): 90 | cAMP level in RIN-38 cells, 10 min, peptide at 10^-11 M (no peptide: 91) (cellular receptors): 90
Molecule: HDEFERHAEGTFTSDVSSYLEGQAAKEFIAWLVKGRG [glucagon-like peptide-1 (1-37)]

cAMP level in RIN-38 cells, 10 min, peptide at 10^-6 M (no peptide: 140) (cellular receptors): 400 | cAMP level in RIN-38 cells, 10 min, peptide at 10^-7 M (no peptide: 140) (cellular receptors): 370 | cAMP level in RIN-38 cells, 10 min, peptide at 10^-8 M (no peptide: 140) (cellular receptors): 494 | cAMP level in RIN-38 cells, 10 min, peptide at 10^-9 M (no peptide: 140) (cellular receptors): 515 | cAMP level in RIN-38 cells, 10 min, peptide at 10^-10 M (no peptide: 140) (cellular receptors): 253 | cAMP level in RIN-38 cells, 10 min, peptide at 10^-11 M (no peptide: 140) (cellular receptors): 533
Molecule: HAEGTFTSDVSSYLEGQAAKEFIAWLVKGRG [glucagon-like peptide-1 (7-37)]
